The results in this text go back to article PMC7311426, “An amphipathic peptide with antibiotic activity against multidrug-resistant Gram-negative bacteria” (Nature Communications, 2020).

In one assay the test system is P. aeruginosa. Kind of assay: microbe, parasite or virus in culture. The conditions noted are these: Pseudomonas aeruginosa, ATCC27853, read-out: MIC against P. aeruginosa (ATCC 27853), as stated for the pneumonia model. The gist of the method:
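MICs were scored by eye after 18-20 h static incubation at 37 °C, with bacteria at 5 × 10^5 CFU mL^−1 in MHB. Peptides were serially diluted 2-fold over 12 points, top 128 or 64 μg mL^−1. CAMHB (CLSI) and 1% agarose-MHB variants were also run, at least six replicates.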

The test system of another assay is P. aeruginosa ATCC 27853. Kind of assay: Murine pneumonia model, aerosolized treatment. Type of assay: in vivo, P. aeruginosa in CD1 mice. The conditions noted are these: lung burden; Tobramycin 4.2mg/mL 20 min; group 9. How it is done:
Peritonitis and UTI murine models were performed at the Department of Microbiology & Infection Control, Statens Serum Institute, Copenhagen, Denmark, under approval by the National Committee of Animal Ethics, Denmark, and adhered to the standards of EU Directive 2010/63/EU. The mouse pneumonia model was performed by Evotec Ltd, United Kingdom, under UK Home Office Licenses and with local ethical committee clearance. All animal studies were contracted by Adenium Biotech ApS.
Peptides were prepared in Ringer’s acetate pH 6.0 (vehicle) at 34 mg mL^−1. Comparator antibiotics included meropenem (Meronem®, AstraZeneca), polymyxin B sulfate (Sigma) and tobramycin (Novartis).
P. aeruginosa pneumonia in vivo model was prepared as follows: male CD1 mice were immunosuppressed with cyclophosphamide 200 mg kg^−1 on day −4 and 150 mg kg^−1 on day −1. […] Mouse weights were recorded once-daily following infection to ensure animals remained within ethical limits and to monitor efficacy of treatment. All mice remaining in the study at 34 h post infection were euthanized and the burden of P. aeruginosa in the lungs was determined. […] The lung homogenates were diluted appropriately then quantitatively cultured on to Pseudomonas-selective agar and incubated at 37 °C for 24 h before the number of colonies was counted. […]

Structures are written as SMILES. ≈ marks a conversion by molar mass, not a printed value.

Take `NC[C@H]1O[C@H](O[C@H]2[C@H](O)[C@@H](O[C@H]3O[C@H](CO)[C@@H](O)[C@H](N)[C@H]3O)[C@H](N)C[C@@H]2N)[C@H](N)C[C@@H]1O` [tobramycin]: the MIC in the assay with P. aeruginosa lay in the range of 0.5 to 2 µg/mL (≈ 1.07 to 4.28 µM). Moreover, the “Log Group Geometric mean (CFU/g)” value in the assay with P. aeruginosa ATCC 27853 was determined as 2.68 CFU/g.
